# Reference: the supplement of paper PMC5412046
# Structures can show the parent of a compound that is named as a salt.
# Experiments:
# SB.msgc-1 [1] = test: area under the dose-response curve of % viability (trapezoidal, 11 doses) (% viability x log10 concentration); higher = less cytotoxic; details: SB.msgc-1 (sporadic gastric cancer)
# Outline: (§1)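 Each entry is viability relative to DMSO, given either at the highest concentration tested or as a trapezoidal area under the curve. Gastric cancer cells from hereditary or sporadic patients (500 cells in 5 μL medium per 1536 well) received compound in DMSO at 11 threefold-diluted concentrations, 23 nL by pintool. Luminescence from CellTiter-Glo was read after 48 h.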
# SB.mhdgc-1 [2] = test: as above; details: SB.mhdgc-1 (hereditary c.1380delA CDH1 gastric cancer)
# Outline: as §1
# SB.msgc-1 [3] = test: viability at highest tested concentration (MAXR) relative to DMSO; higher = less cytotoxic; details: SB.msgc-1 (sporadic gastric cancer)
# Outline: as §1
# SB.mhdgc-1 [4] = test: as above; details: SB.mhdgc-1 (hereditary c.1380delA CDH1 gastric cancer)
# Outline: as §1
SMILES,area under the dose-response curve (SB.msgc-1 [1]),area under the dose-response curve (SB.mhdgc-1 [2]),viability (SB.msgc-1 [3]),viability (SB.mhdgc-1 [4])
C[C@H](CCC(=O)O)[C@H]1CC[C@H]2[C@@H]3[C@@H](O)C[C@@H]4C[C@H](O)CC[C@]4(C)[C@H]3CC[C@]12C [Ursodiol] (top concentration 46.0829 µM),541,491,84.4%,121%
C[C@@H]1CC[C@@]2(CC[C@]3(C)\C(=C/C[C@@H]4[C@@]5(C)CC[C@H](O)C(C)(C)[C@@H]5CC[C@@]34C)[C@@H]2[C@H]1C)C(O)=O [Ursolic acid] (top concentration 92.1659 µM),495,478,4.45%,3.71%
COC1CCC(CC1)N(C(=O)C2CCC(C)CC2)C3=C(SC(=C3)\C4=C\CCCC4)C(O)=O (configuration not stated) [VCH-916] (top concentration 46.0829 µM),501,482,70.1%,99.5%
C[S+](=O)([O-])c1ccc(-c2cnc(N)c(C(=O)Nc3ccccc3)n2)cc1 [VE-821] (top concentration 46.0829 µM),504,477,69.5%,79.9%
NC(=O)c1ccc(N(C(N)=O)c2c(F)cccc2F)nc1-c1ccc(F)cc1F [VX-702] (top concentration 46.0829 µM),489,498,89.3%,55.7%
FC1=CC=C(SC/2=N/N3\C=N/C(=O)/C(=C3/C=C2)C4=C(Cl)C=CC=C4Cl)C(=C1)F [VX-745] (top concentration 46.0829 µM),495,542,62%,33.6%
CCOC1OC(=O)C[C@@H]1NC(=O)[C@@H]1CCCN1C(=O)[C@@H](NC(=O)c1ccc(N)c(Cl)c1)C(C)(C)C (some centres not stated) [VX-765] (top concentration 46.0829 µM),580,531,117%,94.2%
Cc1ccc2c(=O)c3cccc(CC(=O)O)c3oc2c1C [Vadimezan] (top concentration 46.0829 µM),498,461,81.5%,36.3%
CC(C)[C@H](N)C(=O)OCCOC[N]1C=NC2=C1\N=C(N)/NC2=O [Valaciclovir] (top concentration 46.0829 µM),508,528,94.6%,110%
CCCC(CCC)C(=O)[O-] [Valproic acid sodium salt] (top concentration 46.0829 µM),505,425,46.3%,47.7%
C/C=C/C[C@@H](C)C(=O)[C@H]1C(=O)N[C@@H](C(C)C)C(=O)N(C)CC(=O)N(C)[C@@H](CC(C)C)C(=O)N[C@@H](C(C)C)C(=O)N(C)[C@@H](CC(C)C)C(=O)N[C@@H](C)C(=O)N[C@H](C)C(=O)N(C)[C@@H](CC(C)C)C(=O)N(C)[C@@H](CC(C)C)C(=O)N(C)[C@@H](C(C)C)C(=O)N1C [Valspodar] (top concentration 46.0829 µM),475,393,35.1%,37.4%
CN[C@H](CC(C)C)C(=O)N[C@H]1C(=O)N[C@@H](CC(N)=O)C(=O)N[C@H]2C(=O)N[C@H]3C(=O)N[C@H](C(=O)N[C@H](C(=O)O)c4cc(O)cc(O)c4-c4cc3ccc4O)[C@H](O)c3ccc(c(Cl)c3)Oc3cc2cc(c3O[C@@H]2O[C@H](CO)[C@@H](O)[C@H](O)[C@H]2O[C@H]2C[C@](C)(N)[C@H](O)[C@H](C)O2)Oc2ccc(cc2Cl)[C@H]1O [Vancomycin hydrochloride] (top concentration 46.0829 µM),521,503,99.9%,73.2%
COc1cc2c(Nc3ccc(Br)cc3F)ncnc2cc1OCC1CCN(C)CC1 [Vandetanib] (top concentration 46.0829 µM),456,410,34%,3.39%
Cl.Cl.Fc1ccc(C(OCCN2CCN(CCCc3ccccc3)CC2)c2ccc(F)cc2)cc1 [Vanoxeamine] (top concentration 46.0829 µM),489,416,39.6%,2.93%
O=C(O)CC/C=C\CC[C@@H]1[C@@H](N2CCCCC2)[C@@H](O)C[C@@H]1OCc1ccc(-c2ccccc2)cc1 [Vapiprost hydrochloride] (top concentration 46.0829 µM),539,560,106%,79.6%
CCCC1=NC(=C2[N]1NC(=N\C2=O)/C3=CC(=CC=C3OCC)[S+]([O-])(=O)N4CCN(CC)CC4)C [Vardenafil] (top concentration 46.0829 µM),437,504,7.86%,29.8%
Cl.c1cnc2cc3c(cc2n1)C1CNCC3C1 [Varenicline tartrate] (top concentration 46.0829 µM),529,551,93.8%,84.2%
CCc1c(C(=O)C(N)=O)c2c(OCC(=O)O)cccc2n1Cc1ccccc1 [Varespladib] (top concentration 46.0829 µM),523,543,55.3%,49.9%
COC(=O)c1ccc2c(c1)NC(=O)/C2=C(\Nc1ccc(N(C)C(=O)CN2CCN(C)CC2)cc1)c1ccccc1 [Vargatef] (top concentration 46.0829 µM),409,418,6.94%,1.22%

SMILES,area under the dose-response curve (SB.msgc-1 [1]),area under the dose-response curve (SB.mhdgc-1 [2]),viability (SB.msgc-1 [3]),viability (SB.mhdgc-1 [4])
C[C@@H]\1COC(=N1)\NC2=CC3=C(C=C2)N=CN=C3NC4=CC(=C(OCC5=NC=CS5)C=C4)Cl [Varlitinib tosylate] (top concentration 46.0829 µM),272,354,10.8%,2.8%
Cl.Cl.Clc1ccc(Nc2nnc(Cc3ccncc3)c3ccccc23)cc1 [Vatalanib] (top concentration 46.0829 µM),481,417,53.2%,32.5%
CC(=O)O[C@H]1C[C@@H]2CC[C@@H]3[C@H](CC[C@@]4(C)[C@H]3C[C@H]([N+]3(C)CCCCC3)[C@@H]4OC(C)=O)[C@@]2(C)C[C@@H]1N1CCCCC1 [Vecuronium bromide] (top concentration 46.0829 µM),526,492,66%,49.1%
O=C(O)[C@@H](c1ccc(OCc2ccc3ccccc3n2)cc1)C1CCCC1 [Veliflapon] (top concentration 46.0829 µM),523,536,82.7%,97.1%
C[C@]1(c2nc3c(C(N)=O)cccc3[nH]2)CCCN1 [Veliparib] (top concentration 46.0829 µM),447,404,69.4%,54.2%
CCC[S+](=O)([O-])Nc1ccc(F)c(C(=O)c2c[nH]c3ncc(-c4ccc(Cl)cc4)cc23)c1F [Vemurafenib] (top concentration 46.0829 µM),537,507,38%,52.4%
COc1ccc(C(CN(C)C)C2(O)CCCCC2)cc1 (configuration not stated) [Venlafaxine hydrochloride] (top concentration 46.0829 µM),516,519,81.9%,90.6%
COC(=O)CCC1=C(C)C2=CC3=NC(=CC4=C(C)C(=C([NH]4)C=C\5N=C(C=C1[NH]2)\C(=C5C)CCC(O)=O)C=C)\C6=C\C=C(/[C@@H](C(=O)OC)[C@@]36C)C(=O)OC [Verteporfin] (top concentration 46.0829 µM),315,418,4.28%,37.4%
COC[C@H](c1ccc(C(F)(F)F)cc1)N1CCN(C2(C)CCN(C(=O)c3c(C)ncnc3C)CC2)C[C@H]1C.O=C(O)/C=C\C(=O)O [Vicriviroc] (top concentration 46.0829 µM),507,423,4.65%,4.76%
Nc1ncnc2c1ncn2[C@@H]1O[C@@H](CO)[C@H](O)[C@@H]1O [Vidarabine] (top concentration 34.4879 µM),586,552,109%,89.7%
COC1=CC(=CC=C1)C2=CC=C(NC(=O)/C3=C(/CCC3)C(O)=O)C(=C2)F [Vidofludimus] (top concentration 46.0829 µM),485,445,44.9%,40.8%
CC[C@]1(O)C[C@H]2CN(CCC3=C([NH]C4=C3C=CC=C4)[C@@](C2)(C(=O)OC)C5=CC6=C(C=C5OC)N(C=O)[C@H]7[C@](O)([C@H](OC(C)=O)[C@]8(CC)\C=C/C[N@@]9CC[C@]67[C@H]89)C(=O)OC)C1 [Vincristine sulfate] (top concentration 46.0829 µM),251,260,36.7%,33.5%
CC[C@]1(O)C[C@@H]2CN(CCc3c([nH]c4ccccc34)[C@@](C(=O)OC)(c3cc4c(cc3OC)N(C)[C@H]3[C@@](O)(C(N)=O)[C@H](O)[C@]5(CC)C=CCN6CC[C@]43[C@@H]65)C2)C1 [Vindesine sulfate] (top concentration 46.0829 µM),221,225,40.5%,36.3%
CC[C@]12\C=C/CN3CC[C@]4([C@@H](N(C)C5=CC(=C(C=C45)[C@]6(C[C@H]7C[C@H](CN(C7)CC8=C6[NH]C9=C8C=CC=C9)C(C)(F)F)C(=O)OC)OC)[C@](O)([C@@H]1OC(C)=O)C(=O)OC)[C@H]23 [Vinflunine] (top concentration 46.0829 µM),267,265,17.2%,8.01%
CCC1=C[C@@H]2CN(C1)Cc1c([nH]c3ccccc13)[C@@](C(=O)OC)(c1cc3c(cc1OC)N(C)[C@H]1[C@@](O)(C(=O)OC)[C@H](OC(C)=O)[C@]4(CC)C=CCN5CC[C@]31[C@@H]54)C2 [Vinorelbine] (top concentration 46.0829 µM),347,264,43.5%,15.2%
CCOC(=O)\C1=C\[C@]2(CC)CCCN3CCC4=C([C@H]23)[N]1C5=C4C=CC=C5 [Vinpocetine] (top concentration 46.0829 µM),469,490,4.04%,3.48%
Cc1c(O)cccc1C(=O)N[C@@H](CSc1ccccc1)[C@H](O)CN1C[C@H]2CCCC[C@H]2C[C@H]1C(=O)NC(C)(C)C [Viracept] (top concentration 46.0829 µM),486,431,20%,3.25%
C[S+](=O)([O-])c1ccc(C(=O)Nc2ccc(Cl)c(-c3ccccn3)c2)c(Cl)c1 [Vismodegib] (top concentration 46.0829 µM),494,535,64.1%,81.5%
CC[C@@H]1C(=O)N(C)c2cnc(Nc3ccc(C(=O)NC4CCC(N5CCN(CC6CC6)CC5)CC4)cc3OC)nc2N1C(C)C (some centres not stated) [Volasertib] (top concentration 46.0829 µM),345,363,16.2%,3.26%
